Source: PubChem BioAssay AID493161 (The Scripps Research Institute Molecular Screening Center, 2011)
Active and inactive are the calls of the source. No rule for the calls is given here.

Test: cytotoxicity of cultured cells, dose response, cytotoxicity control for LYPLA1/LYPLA2 dual inhibitor project, cell-based, absorbance, serum-free or FCS media (AID 493161)
Details: absorbance cell survival

Compound | CC50 (serum-free media) | CC50 (with FCS)
CC(C)(C)C1CCN(C(=O)n2ncc(C(O)(c3ccccc3)c3ccccc3)n2)CC1 | > 35 µM (inactive) | > 50 µM (inactive)
CCC1CCCCN1C(=O)n1ncc(C(O)(c2ccccc2)c2ccccc2)n1 (stereo unspecified) | > 50 µM (inactive) | > 50 µM (inactive)
CC(C)(O)c1cnn(C(=O)N2CCC(C(C)(C)C)CC2)n1 | > 9 µM | > 27 µM (inactive)
